We go through one compound from US20120196793A1, “BIOMARKERS FOR IAP INHIBITOR COMPOUNDS” (priority 2009, published 2012).

Experiment [1] relates to TNFα. The experiment is described as follows: Secreted TNFα ELISA in a panel of cancer cell lines before and 24 hours after compound addition. The note with it: sensitive vs insensitive cancer cell lines (3-day viability assays, up to 10 uM). The format is cell-based, Human. As for the experimental part:
To test whether the engagement of the TNFα signaling pathway is requisite for single agent activity in vitro, a panel of cancer cell lines is evaluated for sensitivity to Compound A while in parallel, secreted TNFα expression levels are assessed by ELISA before and 24 hours after compound addition. […] Increased basal TNFα levels also positively correlate with sensitivity to Compound A (FIG. 8).
(§1) On day one, cancer cells are plated into two 96-well, clear, flat bottom plates. All wells in row A contain 200 uL of media. All wells in rows B-G contain 5000 cells per well in 180 ul of RPMI media with 10% FBS. Plates are then incubated overnight for 18 hours at 37 C, 5% CO2. […] TNFα levels in the media are measured using the R&D Quantikine Human TNFα High Sensitivity ELISA assay, catalog number HSTA00D. […] The colorimetric readout is measured on a spectrometer at 490nM within 30 minutes of adding the stop solution. Raw data is normalized to account for background noise, duplicate values are averaged and concentrations are calculated from a standard curve (FIG. 8). […] CTG measures the amount of ATP released from viable cells that can be measured by a luminescent plate reader. Cells with CTG are incubated for ten minutes at room temperature and read on a luminescent plate reader. Raw data is normalized to account for background noise, duplicate values are averaged and percent control growth is calculated.
On the technique in general: An ELISA detects its analyte on a solid surface through an enzyme-linked reagent.

The test system of experiment [2] is TNFα. The experiment is described as follows: TNFα ELISA in SK-OV-3 cells with shRNA knockdown of NFkB pathway nodes. The format is cell-based, Human. The method, then: To elucidate this mechanism, nodes of the canonical and non-canonical NFkB pathways and are knocked down and induction of TNFα expression, a marker of NFkB activation, after treatment with the Smac mimetic compound Compound A, is assessed. […] Therefore, tumors with active or functional canonical NFkB signaling, as evidenced by TNFα expression or other markers of active NFkB signaling, are more likely to respond to Compound A.
as §1, with “one, SKOV” for “one,”, “10% FBS and 1 ug/mL of puromycin.” for “10% FBS.”, “Human TNFalpha” for “Human TNFα”, “at 490 nM” for “at 490nM”, “(FIG. 9).” for “(FIG. 8).”, “reader. […]” for “reader. Raw data is normalized to account for background noise, duplicate values are averaged and percent control growth is calculated.”

The subject of experiment [3] is MDA-MB-231 breast cancer cell line. The experiment can be described thus: In vitro induction of TNFα, caspase activation and cell death in tumor cell lines. The format is cell-based. The note with it: in vitro assays, variety of tumor cell lines including MDA-MB-231.
Experiment [4] has as its system TNFα. The experiment is described as follows: TNFα ELISA of tumor lysates from orthotopic MDA-MB-231 xenografts after a single oral dose. The format is in vivo, mice. The following applies: 39 days after tumor cell implantation, mean tumor volume approximately 141 mm3. As for the experimental part:
To assess whether the induction of TNFα observed in the MDA-MB-231 breast tumor cell line translated to an in vivo setting, an experiment is performed in mice harboring orthotopically implanted MBA-MD-231 tumors.
A single oral dose of Compound A is administered 39 days following tumor cell implantation when mean tumor volumes reached approximately 141 mm3. Tumors are harvested from each animal, lysed, and analyzed by ELISA to determine TNFα concentrations.

Experiment [5] relates to patient-derived tumor models representing both triple negative breast cancer and Non Small Cell Lung Carcinoma (NSCLC). The experiment is described as follows: Single agent tumor growth inhibition (% T/C) in patient-derived xenograft models. The note with it: 18 patient-derived tumor models. The format is in vivo, nude mice. The text has this: Patient-derived xenograft models in which human tumors are surgically resected then directly implanted and subsequently passaged in nude mice are potentially more clinically relevant than cell line models since there is no selective pressure for two dimensional growth on a plastic stratum.
Compound A has been tested for single agent activity in 18 patient-derived tumor models representing both triple negative breast cancer and Non Small Cell Lung Carcinoma (NSCLC) models. Tumor growth inhibition by Compound A is reported as % T/C (percent growth of tumors in mice treated with Compound A relative to the growth of tumors in Control vehicle treated mice). Complete regression of a tumor would be reported as −100% T/C, tumor stasis (no growth) would be reported as 0% T/C, and no effect would be reported as 100% T/C. […] Stasis (T/C≦40%) has been observed in 25% of primary models assessed.

With `CN[C@@H](C)C(=O)N[C@H](C(=O)N1CCC[C@H]1c1nc(C(=O)c2ccc(F)cc2)cs1)C1CCCCC1` [Compound A, (S)—N—((S)-1-Cyclohexyl-2-{(S)-2-[4-(4-fluoro-benzoyl)-thiazol-2-yl]-pyrrolidin-1-yl}-2-oxo-ethyl)-2-methylamino-propionamide], the “induction of secreted TNFα” value in experiment [1] is recorded as “induced TNF-alpha in sensitive but not insensitive cancer cell lines”. Moreover, the “Compound A-mediated induction of TNFα after knockdown of RelB” value in experiment [2] (SK-OV-3, shRNA-mediated knockdown of RelB (non-canonical NFkB pathway)) was “does not impact”. Also, the “Compound A-mediated TNF induction after knockdown of RelA” value in experiment [2] (SK-OV-3 ovarian carcinoma cell line, shRNA-mediated knockdown of RelA (canonical NFkB pathway)) is listed as “ablated TNF induction”. Further, the “induction of TNFα, activation of caspases and subsequent cell death” value in experiment [3] is “induces the induction of TNFα, activation of caspases and subsequent cell death”. Also, the “increase in TNFα in MDA-MB-231 tumor lysates” value in experiment [4] is roughly 10 fold. Besides, in experiment [5], the “range of responses (% T/C)” value was “from tumor regression to no effect” and the “share of primary models in which stasis (T/C≦40%) was observed” value is given as 25%.
